Experimental data from article PMC11899342, “Novel Triazeneindole Antibiotics: Synthesis and Hit-to-Lead Optimization” (International Journal of Molecular Sciences, 2025).

Assays:
Assay type in all cases: in vitro ADME
[1] = Stability in rat liver microsomes; settings: NADPH
Description: (§1) The liver metabolism of the substance was studied in the microsomal fractions of human and rat livers (XenoTech HMMCPL, RTMCPL, Kansas City, KS, USA) in the presence of the cofactor of the oxidative enzymes NADPH (AppliChem, Darmstadt, Germany).
(§2) The plate was incubated in a thermal shaker for 10 min at 400 rpm and 37 °C; then, 2.4 µL of 100× stocks of the tested substance was added into each well. A total of 30 µL of 8× cofactor solution was added to each experimental well (two replicates), 30 µL of deionized water was added to one control well, and all wells were mixed three times using a multichannel pipette with a volume of 100 µL. After mixing, the plate was placed in a thermal shaker at 400 rpm and 37 °C. The reactions were terminated at the following time points—0, 5, 10, 15, 20, and 30 min—by transferring 30 µL of the reaction mixture from the corresponding well to 1.1 mL microtubes and adding 180 µL of acetonitrile with internal standard 200 ng/mL tolbutamide (Fluka, Switzerland). To evaluate the stability of the substance in the microsomes without the cofactor, two aliquots were taken from the control well, and the reactions were terminated at 0 and 30 min time points. […] Then, the samples were centrifuged for 10 min at 1500× g, and 150 μL of the supernatant was taken for UPLC–MS/MS analysis.

[2] = Stability in artificial intestinal juice
Description: During ADME studies, the concentration of the compounds was analyzed using ultra-performance liquid chromatography (UPLC) coupled with tandem mass spectrometry (MS/MS) in the multiple reaction monitoring (MRM) mode. A quantitative analysis was performed using the internal standard (IS) calibration method, with tolbutamide as the IS.
The analyses were carried out on a system composed of an Agilent 1290 Infinity UPLC system (Agilent Technologies, USA) connected by ESI interface to a tandem quadrupole mass spectrometer QTRAP 6500 (AB Sciex Corp, Framingham, MA, USA). The separation was conducted on an YMC Triart C18 50 × 2 mm, 1.9 μm column, which was kept at 35 °C. The samples were cooled to 8 °C in an autosampler, and aliquots of 1 µL were delivered onto the column. Elution was performed using gradients of A (0.1% formic acid in water) and B (0.1% formic acid in acetonitrile), at the flow rate 0.35 mL/min. […] The declustering potential was 31 V for BX and 93 V for IS, resepectively; the collision energy was attuned to 17 eV; the collision cell exit potential was 10 V for BX and 8 V for IS MRM, respectively; the analyses were recorded for 305 → 234 (BX) and 271 → 172 (tolbutamide). […]

Stability in rat plasma = settings: 37 °C, 1 μM
Description: (§3) For the experiment, human and rat plasma (SD) was thawed at room temperature and centrifuged for 5 min at 1500× g. Eucatropine (Sigma-Aldrich, USA), which is unstable in human and rat plasma, was used as a control compound.
(§4) For stability evaluation, 3 μL of 100X solutions of the tested or control compound (0.1 mM) was added to 297 μL of the corresponding plasma (prewarmed to 37 °C) to a final concentration of 1 μM. The plasma samples were incubated with the test and control compounds in the 0.65 mL microtubes at 37 °C and under 300 rpm rotation. After 15, 30, 60, and 240 min, 30 μL aliquots were taken into 1.1 mL microtubes with 180 μL of chilled acetonitrile with an internal standard of 200 ng/mL tolbutamide (Fluka). The tubes were stirred and kept at 4 °C for 15 min, then centrifuged at 1500× g for 10 min. A total of 200 μL of the supernatants was transferred into microtubes and stored at −70 °C until UPLC–MS/MS analysis.

[3] = Stability in human liver microsomes
Description: as §1, §2

[4] = Stability in human plasma; settings: 37 °C, 1 μM
Description: as §3, §4

CCOC(=O)c1[nH]c2cc(F)ccc2c1/N=N/N1CCCC1 [BX-SI043, Ethyl (E)-6-fluoro-3-(pyrrolidin-1-yldiazenyl)-1H-indole-2-carboxylate]
microsomal CLint ([1]; pH 7.4, rat liver microsomes): 2140 µL/min/mg | Remaining after 30 min ([1]; rat liver microsomes): 0.00% | t1/2 ([1]; rat liver microsomes, listed as ВХSI043): 1.30 min | half-life ([1]; rat, liver microsomes, pH 7.4, rat liver microsomes): 1.4 min | half-life at 1 µM ([2]; artificial intestinal juice with pancreatin, pH 6.8, pancreatin, 37 °C, 1 μM, read-out: t1/2 in artificial intestinal juice (converted)): 60 min | metabolism in intestinal juice after 4 h of incubation ([2]; pH 6.8, 37 °C, 4 h): fully metabolized | remaining in rat plasma after 15 min (Stability in rat plasma): 1.7% | Remaining after 30 min ([3]; NADPH): 0.00% | half-life ([3]; pH 7.4, NADPH): 2.73 min | microsomal CLint ([3]; pH 7.4, NADPH): 1020 µL/min/mg | metabolized in human plasma after 1 h ([4]; 1 h): about 50% | metabolized in human plasma after 4 h ([4]; 4 h): 97%
